The values that follow come from US20210138006A1, “Systems, Methods, and Compositions for Treating or Preventing Bacterial Infection and for Reducing or Preventing Bacterial Overpopulation” (BRIGHAM YOUNG UNIVERSITY, priority 2018, published 2021).

The series deals with honeybees (Apis mellifera). It counts as in vivo. Conditions: after fall inspection. The source says: Treatment Study: This study provides disclosure relating to the potential effectiveness of using phages, such as PL phages, when treating healthy beehives that are not at risk for AFB.
This combined not-at-risk preventative and safety treatment study using PL phages occurred when 96 beehives were observed and assigned to one of three groups to either be control hives, hives treated preventative PL phages, or hives treated with preventative Tylan antibiotic.
Study Design: Test animals—A total of 96 colonies (hives) of honeybees (Apis mellifera) were previously established in two near-by apiaries. Each of the colonies had to meet the following four criteria: a viable laying queen, contain approximately 40,000 or more adult worker bees, have uncapped brood, and have no visible signs of American Foulbrood. All 96 hives met the criteria and were included in the study.
Route of administration: Oral.
Treatment: PL phage cocktail diluted in sugar water.
Objective and design: The objective was to determine the comparative health of beehives left without a treatment to hives prophylactically treated with PL phages or Tylan antibiotic for the prevention of AFB in a longitudinal study.
All 96 beehives were inspected in spring and fall using a 3-brood rack approach, wherein observation of three full brood racks constituted a complete inspection to look for AFB. Hives that looked unusual were inspected beyond the 3-brood racks. For each hive observation upon signs of AFB, the colonies were to be rated on a 0-3 scale based on a modification of the method proposed by Hitchcock et al. (1970). Frames were rated as follows:
For each hive inspected, other observations were also noted, such as signs of chalkbrood, European Foulbrood (EFB), apparent mite infestation, queen health (based on laying patterns, etc.), other obvious disorders, and any colony loss.
Results: AFB was not detected in any hive in any group throughout the study. […] For this study, a hive was counted as “diseased” if it had chalkbrood, had European Foulbrood, or struggled to thrive. […]

In the case of `CC[C@H]1OC(=O)C[C@@H](O)[C@H](C)[C@@H](O[C@@H]2O[C@H](C)[C@@H](O[C@H]3C[C@@](C)(O)[C@@H](O)[C@H](C)O3)[C@H](N(C)C)[C@H]2O)[C@@H](CC=O)C[C@@H](C)C(=O)/C=C/C(C)=C/[C@@H]1CO[C@@H]1O[C@H](C)[C@@H](O)[C@@H](OC)[C@H]1OC` [Tylan], the “% Healthy Hives (positive health survival rate)” value (32 hives per group, control 90.6%) came out at 62.5%. For the same compound, the “Diseased or Dead Hives” value (of 32 hives per group, control 3) turned out to be 12. The hives remained healthy (of 32 hives per group, control 29) was determined as 20.
